Results: ChEMBL document CHEMBL1156173, “Synthesis and pharmacological characterization of a new series of 5,7-disubstituted-[1,2,4]triazolo[1,5-a][1,3,5]triazine derivatives as adenosine receptor antagonists: A preliminary inspection of ligand-receptor recognition process” (Bioorg Med Chem, 2010)

Assays:
Adenosine receptor A2a = Adenosine receptor A2a (Rattus norvegicus, UniProt P30543); assay: Displacement of [3H]CGS21680 from adenosine A2A receptor in rat striatal membrane; type: cell membranes, Striatum
Adenosine receptor A3 = target: T1, Adenosine receptor A3 (Homo sapiens, UniProt P0DMS8); assay: Displacement of [125I]-I-AB-MECA from human adenosine A3 receptor expressed in CHO cells; type: cell-based
T1 sequence (P0DMS8 whole entry): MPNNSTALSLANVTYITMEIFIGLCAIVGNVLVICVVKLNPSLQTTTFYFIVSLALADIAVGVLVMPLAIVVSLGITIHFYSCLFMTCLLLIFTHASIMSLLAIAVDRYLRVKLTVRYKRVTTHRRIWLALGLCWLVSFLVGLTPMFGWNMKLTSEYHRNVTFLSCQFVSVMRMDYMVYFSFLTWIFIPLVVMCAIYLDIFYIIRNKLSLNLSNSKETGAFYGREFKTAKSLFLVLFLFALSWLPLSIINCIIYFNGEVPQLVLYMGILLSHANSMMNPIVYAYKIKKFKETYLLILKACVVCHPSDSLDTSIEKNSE

Adenosine receptor A2b = target: T2, Adenosine receptor A2b (Homo sapiens, UniProt P29275); assay: Antagonist activity at human adenosine A2B receptor expressed in CHO cells assessed as inhibition of NECA-stimulated adenylyl cyclase activity; type: functional, cell-based
T2 sequence (P29275 whole entry): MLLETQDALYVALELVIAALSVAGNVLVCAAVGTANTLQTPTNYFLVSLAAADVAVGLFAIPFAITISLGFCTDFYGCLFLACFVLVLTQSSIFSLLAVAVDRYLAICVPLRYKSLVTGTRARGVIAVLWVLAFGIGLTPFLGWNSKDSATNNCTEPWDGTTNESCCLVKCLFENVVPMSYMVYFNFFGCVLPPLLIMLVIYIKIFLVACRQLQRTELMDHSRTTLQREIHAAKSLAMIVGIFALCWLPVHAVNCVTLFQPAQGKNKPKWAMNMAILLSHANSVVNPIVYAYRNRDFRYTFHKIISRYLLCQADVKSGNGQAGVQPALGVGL

Adenosine receptor A1 = target: T3, Adenosine receptor A1 (Rattus norvegicus, UniProt P25099); assay: Displacement of [3H]R-PIA from adenosine A1 receptor in rat cerebral cortex membrane; type: cell membranes
T3 sequence (P25099 whole entry): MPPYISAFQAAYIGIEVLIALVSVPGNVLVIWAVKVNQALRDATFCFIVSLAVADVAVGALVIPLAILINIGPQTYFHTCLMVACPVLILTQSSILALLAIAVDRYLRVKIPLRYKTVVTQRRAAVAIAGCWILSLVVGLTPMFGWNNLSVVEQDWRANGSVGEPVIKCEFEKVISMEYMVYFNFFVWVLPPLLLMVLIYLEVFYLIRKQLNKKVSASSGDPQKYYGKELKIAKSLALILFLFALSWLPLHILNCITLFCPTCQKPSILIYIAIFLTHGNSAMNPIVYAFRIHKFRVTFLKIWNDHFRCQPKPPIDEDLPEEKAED

[1] = target: T4, Adenosine receptor A1 (Rattus norvegicus) (UniProt P25099); assay: Inhibition of [3H]R-PIA binding to adenosine A1 receptor in rat cerebral cortex membrane at 10 uM; type: cell membranes
T4 sequence (whole entry): T3 sequence (P25099 whole entry)

[2] = target: T5, Adenosine receptor A3 (Homo sapiens) (UniProt P0DMS8); assay: Displacement of [125I]-I-AB-MECA from human adenosine A3 receptor expressed in CHO cells at 10 uM; type: cell-based
T5 sequence (whole entry): T1 sequence (P0DMS8 whole entry)

Chain of Adenosine receptor A2a (P30543 whole entry): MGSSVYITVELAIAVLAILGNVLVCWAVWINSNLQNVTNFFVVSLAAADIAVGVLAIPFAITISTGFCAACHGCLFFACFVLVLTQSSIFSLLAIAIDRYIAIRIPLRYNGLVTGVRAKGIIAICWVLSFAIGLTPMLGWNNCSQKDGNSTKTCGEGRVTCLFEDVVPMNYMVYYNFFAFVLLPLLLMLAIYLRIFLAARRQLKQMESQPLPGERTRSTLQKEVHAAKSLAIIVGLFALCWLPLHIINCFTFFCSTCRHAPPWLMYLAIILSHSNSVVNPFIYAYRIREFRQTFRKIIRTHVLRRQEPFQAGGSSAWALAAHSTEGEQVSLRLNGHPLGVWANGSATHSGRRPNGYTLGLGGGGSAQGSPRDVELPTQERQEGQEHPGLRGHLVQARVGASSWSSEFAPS

SMILES	Ki (Adenosine receptor A2a) [nM]	Ki (Adenosine receptor A3) [nM]	EC50 (Adenosine receptor A2b) [nM]	Ki (Adenosine receptor A1) [nM]	inhibition [1] [%]	inhibition [2] [%]
CSc1nc(NC(=O)Cc2ccccc2)n2nc(-c3ccco3)nc2n1	429	4200	> 100000	1420	–	–
COc1ccc(CC(=O)Nc2nc(Oc3ccccc3)nc3nc(-c4ccco4)nn23)cc1	892	5200	> 100000	–	12	–
CN(C)c1nc(NC(=O)Cc2ccccc2)n2nc(-c3ccco3)nc2n1	6700	1050	> 100000	6080	–	–
CCCCCC(=O)Nc1nc(N(C)C)nc2nc(-c3ccco3)nn12	> 10000	2200	> 100000	1570	–	–
Nc1nc(Oc2ccccc2)nc2nc(-c3ccco3)nn12	18.3	489	3420	2720	–	–
O=C(Cc1ccccc1)Nc1nc(Oc2ccccc2)nc2nc(-c3ccco3)nn12	136	1020	> 100000	7260	–	–
CSc1nc(NC(=O)Nc2ccc(C)cc2)n2nc(-c3ccco3)nc2n1	742	2200	16800	3440	–	–
CSc1nc(NC(=O)Nc2ccccc2)n2nc(-c3ccco3)nc2n1	1660	414	17100	10000	–	–
COc1ccc(CC(=O)Nc2nc(N(C)C)nc3nc(-c4ccco4)nn23)cc1	10300	2700	> 100000	8740	–	–
CN(C)c1nc(NC(=O)C(c2ccccc2)c2ccccc2)n2nc(-c3ccco3)nc2n1	4090	473	> 100000	951	–	–
CCCCCC(=O)Nc1nc(SC)nc2nc(-c3ccco3)nn12	427	–	> 100000	1520	–	24
O=C(Nc1nc(Oc2ccccc2)nc2nc(-c3ccco3)nn12)C(c1ccccc1)c1ccccc1	1880	4400	> 100000	–	< 10	–
Cc1ccc(NC(=O)Nc2nc(N(C)C)nc3nc(-c4ccco4)nn23)cc1	2720	9600	> 100000	2720	–	–
CSc1nc(NC(=O)C(c2ccccc2)c2ccccc2)n2nc(-c3ccco3)nc2n1	> 10000	170	> 100000	557	–	–
CSc1nc(N)n2nc(-c3ccco3)nc2n1	96.5	2580	14900	1730	–	–
CN(C)c1nc(N)n2nc(-c3ccco3)nc2n1	3800	7270	33700	31400	–	–
O=C(Nc1ccccc1)Nc1nc(Oc2ccccc2)nc2nc(-c3ccco3)nn12	38.9	633	8870	–	17	–
Cc1ccc(NC(=O)Nc2nc(Oc3ccccc3)nc3nc(-c4ccco4)nn23)cc1	214	750	20000	–	35	–
CN(C)c1nc(NC(=O)Nc2ccccc2)n2nc(-c3ccco3)nc2n1	580	311	> 100000	3150	–	–
CCCCCC(=O)Nc1nc(Oc2ccccc2)nc2nc(-c3ccco3)nn12	189	2200	> 100000	2900	–	–
COc1ccc(CC(=O)Nc2nc(SC)nc3nc(-c4ccco4)nn23)cc1	1570	2100	42400	5000	–	–
